We go through twelve compounds from ChEMBL document CHEMBL1201862, “PubChem BioAssay data set” (2004).

Among the test systems are 786-0; A549; COLO 205; DMS-273; HCC 2998; HOP-92; K562; KM12; M14; NCI-H226; NCI-H522; OVCAR-4; OVCAR-8; RXF 393; SK-MEL-28; SW-620; UO-31; SR.
Holding throughout (experiment): NCI tumour cell line growth inhibition, 48 h

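Exposure lasted 48 hours, with cells grown in 96-well plates and compounds tested at five concentrations. At the GI50, growth is halved.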 Activity calls are given as the source filed them. No stated cut-off is given here; in the data, active = GI50 up to about 1.1 µM and inactive = higher. Where only a bound is given, the exact number is not on record here.

As for `CC(C)=CCC/C(C)=C/CC/C(C)=C/CC/C=C(\C)CC/C=C(\C)CCC1SC1(C)C` (centres undefined), the GI50 was > 100 µM (inactive) with 786-0; > 100 µM (inactive) with A549; > 100 µM (inactive) with COLO 205; > 100 µM (inactive) with DMS-273; > 100 µM (inactive) in the assay with HCC 2998; 64 µM (inactive) with HOP-92. The GI50 with K562, with KM12, in the assay on M14, with NCI-H226, in the assay on NCI-H522 and with OVCAR-4 was > 100 µM (inactive) in each case. The GI50 in the assay with OVCAR-8 was > 100 µM (inactive); in the assay with RXF 393 it was > 100 µM (inactive); in the assay with SK-MEL-28 it was > 100 µM (inactive); with SW-620, 52.5 µM (inactive); in the assay on UO-31, > 100 µM (inactive).

Regarding `CCSC1(SCC)CC(Cc2ccc(OC)cc2)N(/C=N/C(C)(C)C)C1` (centres undefined), the GI50 was 32.1 µM (inactive) with 786-0; 36.9 µM (inactive) with A549; 21 µM (inactive) with COLO 205; 37.4 µM (inactive) in the assay with DMS-273; 17 µM (inactive) in the assay on HCC 2998; 0.321 µM (active) in the assay on HOP-92. The GI50 was 17.8 µM (inactive) with K562; 25.9 µM (inactive) in the assay on KM12; 14.7 µM (inactive) in the assay with M14; 27.6 µM (inactive) in the assay on NCI-H226; 15 µM (inactive) in the assay on NCI-H522; 29.7 µM (inactive) in the assay with OVCAR-4. Moreover, the GI50 in the assay on OVCAR-8 is 28.2 µM (inactive); in the assay on RXF 393, 11.5 µM (inactive); in the assay on SK-MEL-28, 35.8 µM (inactive); in the assay with SR, 10.6 µM (inactive); in the assay with SW-620 it was 15.1 µM (inactive); in the assay with UO-31, 17.3 µM (inactive).

On to `Cn1c(=O)c(C(c2ccc([N+](=O)[O-])cc2)c2c(O)c3ccccc3n(C)c2=O)cc2ccccc21` (centres undefined), for which the GI50 is 54.6 µM (inactive) in the assay on 786-0; 93.5 µM (inactive) in the assay on A549; 32.7 µM (inactive) with COLO 205; 37.2 µM (inactive) in the assay on DMS-273; > 100 µM (inactive) in the assay on HCC 2998; 53.1 µM (inactive) in the assay with HOP-92. Also, the GI50 in the assay on K562 was > 100 µM (inactive); with KM12, 75.2 µM (inactive); in the assay with M14, 37.8 µM (inactive); in the assay with NCI-H226 it was 13.4 µM (inactive); in the assay on NCI-H522, 20 µM (inactive); with OVCAR-4, 41.1 µM (inactive). The GI50 with OVCAR-8 is > 100 µM (inactive); in the assay on RXF 393 it was 26.4 µM (inactive); with SK-MEL-28, 48.1 µM (inactive); in the assay on SR, 39.4 µM (inactive); in the assay with SW-620, > 100 µM (inactive); with UO-31, 35.2 µM (inactive).

For the compound `CCCCCCCCCCCCCCCCOC(=O)C(C(=O)OCCCCCCCCCCCCCCCC)[N+](C)(C)CCOC(C)=O`, the GI50 is 14.3 µM (inactive) in the assay on 786-0; 20.5 µM (inactive) with A549; 15.8 µM (inactive) in the assay on COLO 205; 9.2 µM (inactive) with DMS-273; 11.4 µM (inactive) in the assay with HCC 2998; 2.85 µM (inactive) with HOP-92. Further, the GI50 was 19.5 µM (inactive) in the assay with K562; 13.7 µM (inactive) with KM12; 19.7 µM (inactive) in the assay with M14; 18.7 µM (inactive) in the assay on NCI-H226; 5.16 µM (inactive) in the assay on NCI-H522; 15.9 µM (inactive) in the assay with OVCAR-4. For the same compound, the GI50 is 17.7 µM (inactive) with OVCAR-8; 2.99 µM (inactive) in the assay on RXF 393; 24 µM (inactive) in the assay with SK-MEL-28; 20.6 µM (inactive) in the assay with SW-620; 19.7 µM (inactive) with UO-31.

Consider `COC(=O)[C@@H]1C(=O)O[C@@H](c2ccc3c(c2)OCO3)[C@@H]1C(=O)OC.COC(=O)[C@H]1C(=O)O[C@@H](c2ccc3c(c2)OCO3)[C@@H]1C(=O)OC`, for which the GI50 is > 100 µM (inactive) in the assay on 786-0; > 100 µM (inactive) in the assay on A549; > 100 µM (inactive) in the assay on COLO 205; > 100 µM (inactive) with DMS-273; > 100 µM (inactive) in the assay with HCC 2998; 43.8 µM (inactive) with HOP-92. Further, the GI50 in the assay on K562, in the assay on KM12, with M14, in the assay on NCI-H226, in the assay on NCI-H522 and in the assay with OVCAR-4 was > 100 µM (inactive) in each case. Moreover, the GI50 in the assay with OVCAR-8, with RXF 393, with SK-MEL-28, in the assay with SR, with SW-620 and in the assay with UO-31 was > 100 µM (inactive) throughout.

For `NC(=O)Nc1c([N+](=O)[O-])cc(C(F)(F)F)cc1[N+](=O)[O-]`, the GI50 was > 100 µM (inactive) with 786-0; > 100 µM (inactive) in the assay with A549; 34.5 µM (inactive) in the assay on COLO 205; > 100 µM (inactive) in the assay on DMS-273; 40.5 µM (inactive) in the assay with HOP-92; 56.2 µM (inactive) in the assay with K562. Further, the GI50 in the assay with KM12 was 57.8 µM (inactive); with M14, > 100 µM (inactive); with NCI-H226 it was > 100 µM (inactive); with NCI-H522, 32.6 µM (inactive); in the assay with OVCAR-4, 63.1 µM (inactive); in the assay with OVCAR-8, 57.5 µM (inactive). Further, the GI50 in the assay with RXF 393 is > 100 µM (inactive); in the assay with SK-MEL-28 it was > 100 µM (inactive); in the assay with SR, > 100 µM (inactive); in the assay with SW-620 it was 51.2 µM (inactive); in the assay with UO-31, > 100 µM (inactive).

Turning to `c1ccc(/N=C2\c3ccccc3C3=NCCCN32)cc1`, the GI50 in the assay with 786-0 was 90.4 µM (inactive); in the assay on A549, 42.3 µM (inactive); in the assay on COLO 205, 62.1 µM (inactive); with DMS-273, 36.3 µM (inactive); in the assay on HCC 2998, 49.7 µM (inactive); in the assay on HOP-92, 13.8 µM (inactive). In addition, the GI50 in the assay with K562 is 29.2 µM (inactive); in the assay with KM12, 38.7 µM (inactive); with M14, > 100 µM (inactive); in the assay with NCI-H226, 27.2 µM (inactive); with NCI-H522, 18.1 µM (inactive); in the assay with OVCAR-4, 42.2 µM (inactive). The GI50 is > 100 µM (inactive) in the assay with OVCAR-8; 34.7 µM (inactive) with RXF 393; > 100 µM (inactive) in the assay on SK-MEL-28; 43.9 µM (inactive) in the assay on SW-620; 29.2 µM (inactive) in the assay on UO-31.

`COCCCCCC(=O)CP(=O)(OC)OC`: the GI50 in the assay on 786-0, in the assay with A549, in the assay with COLO 205, in the assay on DMS-273, with HCC 2998 and in the assay with HOP-92 was > 100 µM (inactive) in each case. In addition, the GI50 in the assay with K562, in the assay on KM12, in the assay on M14, in the assay on NCI-H226, with NCI-H522 and in the assay on OVCAR-8 was > 100 µM (inactive) throughout. Also, the GI50 in the assay with RXF 393 is > 100 µM (inactive); with SK-MEL-28, > 100 µM (inactive); in the assay on SR, 52 µM (inactive); in the assay on SW-620, > 100 µM (inactive); in the assay on UO-31, > 100 µM (inactive).

As for `CN(C)c1ccc(/C=c2\sc3nc4ccccc4n3c2=O)cc1`, the GI50 in the assay with 786-0, with A549, in the assay on COLO 205, with DMS-273, with HCC 2998 and with HOP-92 was > 100 µM (inactive) throughout. In addition, the GI50 in the assay with K562, in the assay with KM12, in the assay on M14, with NCI-H226, in the assay on NCI-H522 and in the assay with OVCAR-4 was > 100 µM (inactive) each time. For the same compound, the GI50 was > 100 µM (inactive) with OVCAR-8; 77.6 µM (inactive) with RXF 393; > 100 µM (inactive) in the assay on SK-MEL-28; > 100 µM (inactive) in the assay with SW-620; > 100 µM (inactive) in the assay on UO-31.

Consider `C/C=C1/C=CC2c3[nH]c4ccccc4c3CCN2C1` (centres undefined), for which the GI50 in the assay on 786-0 was > 400 µM (inactive); with A549, > 400 µM (inactive); with COLO 205, > 400 µM (inactive); in the assay on DMS-273 it was > 400 µM (inactive); in the assay with HCC 2998 it was > 400 µM (inactive); in the assay with HOP-92, 199 µM (inactive). The GI50 in the assay with K562 is > 400 µM (inactive); in the assay with KM12, > 400 µM (inactive); in the assay on NCI-H226 it was 358 µM (inactive); in the assay with NCI-H522 it was 195 µM (inactive); in the assay with OVCAR-8, > 400 µM (inactive); with RXF 393 it was > 400 µM (inactive). The GI50 in the assay with SK-MEL-28 is > 400 µM (inactive); with SR it was 331 µM (inactive); with SW-620 it was > 400 µM (inactive).

As to `CC1(C)CCC(Sc2ccccc2)O1` (centres undefined), the GI50 in the assay with 786-0, in the assay on A549, in the assay on COLO 205, with DMS-273, in the assay with HCC 2998 and in the assay with HOP-92 was > 100 µM (inactive) throughout. Moreover, the GI50 with K562, in the assay on KM12, in the assay on M14, in the assay on OVCAR-4, in the assay with OVCAR-8 and with RXF 393 was > 100 µM (inactive) throughout. Further, the GI50 in the assay with SK-MEL-28, in the assay with SR, in the assay with SW-620 and in the assay on UO-31 was > 100 µM (inactive) in each case.

In the case of `Nc1ccccc1N`, the GI50 in the assay on 786-0, in the assay with A549, in the assay on COLO 205, in the assay with DMS-273, with HCC 2998 and in the assay on HOP-92 was > 100 µM (inactive) throughout. For the same compound, the GI50 is > 100 µM (inactive) in the assay on K562; > 100 µM (inactive) in the assay on KM12; > 100 µM (inactive) in the assay on M14; 15.5 µM (inactive) in the assay with NCI-H522; > 100 µM (inactive) in the assay with OVCAR-4; > 100 µM (inactive) in the assay with OVCAR-8. In addition, the GI50 was > 100 µM (inactive) in the assay with RXF 393; > 100 µM (inactive) in the assay on SK-MEL-28; 32.9 µM (inactive) in the assay with SR; > 100 µM (inactive) in the assay with SW-620; > 100 µM (inactive) with UO-31.
